Patent US12643887B2, “Heterocyclic derivatives with cardiomyocyte proliferation activity for treatment of heart diseases” (Tongji University, priority 2019, dated 2026)

Test system: Neonatal Rat Ventricular Myocytes (NRVMs)
Assay: Myocyte proliferation assay (EdU assay) in neonatal rat ventricular myocytes
Format: cell-based
Settings: growth relative to blank myocyte growth without compound added; for Avg 1 uM (average myocyte proliferation): compound 1 uM; for Avg 3 uM (average myocyte proliferation): compound 3 uM; for Avg 10 uM (average myocyte proliferation): compound 10 uM
Description: 1. Isolation of and Culture Neonatal Rat Ventricular Myocytes (NRVMs)
Ventricles from neonatal rats were separated from the atria, cut into small pieces (about 2×2 mm^2) and then dissociated in Ca2+-free HBSS containing 0.125 mg ml-1 trypsin (Gibco), 10 μg ml-1 DNase II (Sigma) and 0.1 mg ml-1 collagenase type IV (Sigma). The digestion was carried out under constant stirring at 37° C. for 5 min. The supernatant was collected with FBS (Gibco) after each digestion period. After digestion, the collected supernatant was centrifuged at 1000 g for 10 min at room temperature, and then cell pellets were resuspended in DMEM (Gibco) supplemented with 10% FBS and with 100 uM 5-bromo-2′-deoxyuridine (Sigma). The resuspended cells were passed through a cell strainer ([…], BD Falcon) and seeded onto 100-mm plastic dishes for 2 h at 37° C. in a 5% CO2 to remove fibroblasts, the supernatant was then collected and plated onto 1% gelatin (Sigma)-coated dishes. 24 h after the seeding, the medium was changed to DMEM (Gibco) containing 2% FBS (Gibco), 1% insulin-transferrin-selenium (ITS; Gibco), 1% Penicillin-Streptomycin (Gibco). After 24 hours of low serum culture, remove the medium with DMEM (Gibco) containing 6% FBS (Gibco), 1% insulin-transferrin-selenium (ITS; Gibco), 1% Penicillin-Streptomycin (Gibco), different concentrations of compounds (the compounds were pre-diluted in the medium and the drug concentration was 10 uM, 3 uM, 1 uM, fully mixed). After 36 h add Edu substrate (Invitrogen) according to the manufacturer's guidelines, and then after 12 h cell can be used.
• 2.1. Immobilization: Remove the medium and fix the cells with […] in 200 ul (whichever is covered) for 15 min and wash the cells twice with 500 ul of PBS for 5 min each time. • 2.2. Broken membrane: Add 200 ul of 0.3% Triton-X 100 (diluted in PBS) to each well, incubate for 10-15 min at room temperature (the time should not be too long), and wash the cells twice with 500 ul of PBS for 5 min each time. • 2.3. Blocking: Add 200 ul of 10% normal goat serum (diluted with 0.1% PBST) to each well, incubate for 1 h at room temperature, and wash twice with 500 ul of 0.1% PBST for 5 min each time. • 2.4. Primary antibody: dilute the primary antibody (abcam, ab8295) to blocking solution at a ratio of 1:200, add 100 ul per well, incubate for 1 h at room temperature (may be slightly longer than 2-3 h), wash the cells twice with 500 ul 0.1% PBST for 5 min each time. • 2.5. Secondary antibody: Dilute the fluorescently labeled secondary antibody (abcam, ab150117) into blocking solution at a ratio of 1:200, add 100 ul per well, incubate for 1 h at room temperature (the time should not be too long), wash the cells twice with 0.1% PBST for 5 min each time, pay attention to the whole process. Protected from light. • 2.6. Edu staining (Invitrogen C10338) • 2.6.1 Prepare Click-iT® reaction cocktail according to Table 3. It was important to add the ingredients in the order listed in the table; otherwise, the reaction would not proceed optimally. Use the Click-iT® reaction cocktail within 15 minutes of preparation.
• 2.6.2 Add 0.1 mL of Click-iT® reaction cocktail to each well containing a coverslip. Rock the plate briefly to ensure that the reaction cocktail is distributed evenly over the coverslip. • 2.6.3 Incubate the plate for 30 minutes at room temperature, protected from light. • 2.6.4 Remove the reaction cocktail, then wash the cells twice with 0.1% PBST for 5 min each time. • 2.7. DAPI staining: DAPI stain was diluted to PBS at a ratio of 1:1000, 100 ul per well, incubated for 30 min at room temperature, and the cells were washed twice with PBS for 5 min each. 3. Data Analysis
We used Molecular Devices' Image Xpress Micro Confocal for high-throughput photo and data analysis.

O=C(O)CCN(C1=N/C(=C\c2ccc3c(c2)OCO3)C(=O)N1)c1ccccc1 [Example 27, (Z)-3-((4-(benzo[d][1,3]dioxol-5-ylmethylene)-5-oxo-4,5-dihydro-1H-imidazol-2-yl)(phenyl)amino)propanoic acid]
Avg 1 uM (average myocyte proliferation): * (<10% growth relative to blank myocyte growth without compound added.)
Avg 3 uM (average myocyte proliferation): * (<10% growth relative to blank myocyte growth without compound added.)
Avg 10 uM (average myocyte proliferation): ** (10%-50%)

CN(Cc1ccccc1)C1=N/C(=C\c2ccc3ncsc3c2)C(=O)N1 [Example 28, (Z)-5-(benzo[d]thiazol-6-ylmethylene)-2-(benzyl(methyl)amino)-3,5-dihydro-4H-imidazol-4-one]
Avg 1 uM (average myocyte proliferation): * (<10% growth relative to blank myocyte growth without compound added.)
Avg 3 uM (average myocyte proliferation): * (<10% growth relative to blank myocyte growth without compound added.)
Avg 10 uM (average myocyte proliferation): * (<10% growth relative to blank myocyte growth without compound added.)

O=C1NC(NCCN2CCOCC2)=N/C1=C\c1ccc2ncsc2c1 [Example 29, (Z)-5-(benzo[d]thiazol-6-ylmethylene)-2-((2-morpholinoethyl)amino)-3,5-dihydro-4H-imidazol-4-one]
Avg 1 uM (average myocyte proliferation): ** (10%-50%)
Avg 3 uM (average myocyte proliferation): * (<10% growth relative to blank myocyte growth without compound added.)
Avg 10 uM (average myocyte proliferation): *** (>50%)

CN(C1=N/C(=C\c2ccc3[nH]cnc3c2)C(=O)N1)c1ccccc1 [Example 30, (Z)-5-((1H-benzo[d]imidazol-5-yl)methylene)-2-(methyl(phenyl)amino)-3,5-dihydro-4H-imidazol-4-one]
Avg 1 uM (average myocyte proliferation): * (<10% growth relative to blank myocyte growth without compound added.)
Avg 3 uM (average myocyte proliferation): * (<10% growth relative to blank myocyte growth without compound added.)

O=C1NC(NCc2ccccc2)=N/C1=C\c1ccc2ncsc2c1 [Example 31, (Z)-5-(benzo[d]thiazol-6-ylmethylene)-2-(benzylamino)-3,5-dihydro-4H-imidazol-4-one]
Avg 1 uM (average myocyte proliferation): ** (10%-50%)
Avg 3 uM (average myocyte proliferation): ** (10%-50%)

CN(CCN1CCOCC1)C1=N/C(=C\c2ccc3ncsc3c2)C(=O)N1 [Example 32, (Z)-5-(benzo[d]thiazol-6-ylmethylene)-2-(methyl(2-morpholinoethyl)amino)-3,5-dihydro-4H-imidazol-4-one]
Avg 1 uM (average myocyte proliferation): * (<10% growth relative to blank myocyte growth without compound added.)
Avg 3 uM (average myocyte proliferation): * (<10% growth relative to blank myocyte growth without compound added.)

CN(CC1CC1)C1=N/C(=C\c2ccc3ncsc3c2)C(=O)N1 [Example 33, (Z)-5-(benzo[d]thiazol-6-ylmethylene)-2-((cyclopropylmethyl)(methyl)amino)-3,5-dihydro-4H-imidazol-4-one]
Avg 1 uM (average myocyte proliferation): * (<10% growth relative to blank myocyte growth without compound added.)
Avg 3 uM (average myocyte proliferation): * (<10% growth relative to blank myocyte growth without compound added.)

O=C1NC(NCC2CC2)=N/C1=C\c1ccc2ncsc2c1 [Example 34, (Z)-5-(benzo[d]thiazol-6-ylmethylene)-2-((cyclopropylmethyl)amino)-3,5-dihydro-4H-imidazol-4-one]
Avg 1 uM (average myocyte proliferation): ** (10%-50%)
Avg 3 uM (average myocyte proliferation): *** (>50%)

O=C1NC(N(Cc2ccccc2)c2ccccc2)=N/C1=C\c1ccc2[nH]cnc2c1 [Example 35, (Z)-5-((1H-benzo[d]imidazol-5-yl)methylene)-2-(benzyl(phenyl)amino)-3,5-dihydro-4H-imidazol-4-one]
Avg 1 uM (average myocyte proliferation): * (<10% growth relative to blank myocyte growth without compound added.)
Avg 3 uM (average myocyte proliferation): * (<10% growth relative to blank myocyte growth without compound added.)

NC(=O)CCN(C1=N/C(=C\c2ccc3c(c2)OCO3)C(=O)N1)c1ccccc1 [Example 36, (Z)-3-((4-(benzo[d][1,3]dioxol-5-ylmethylene)-5-oxo-4,5-dihydro-1H-imidazol-2-yl)(phenyl)amino)propanamide]
Avg 1 uM (average myocyte proliferation): * (<10% growth relative to blank myocyte growth without compound added.)
Avg 3 uM (average myocyte proliferation): ** (10%-50%)

O=C1NC(N(CC2CC2)c2ccccc2)=N/C1=C\c1ccc2c(c1)OCCO2 [Example 39, (Z)-2-((cyclopropylmethyl)(phenyl)amino)-5-((2,3-dihydrobenzo[b][1,4]dioxin-6-yl)methylene)-3,5-dihydro-4H-imidazol-4-one]
Avg 1 uM (average myocyte proliferation): *** (>50%)
Avg 3 uM (average myocyte proliferation): ** (10%-50%)
Avg 10 uM (average myocyte proliferation): * (<10% growth relative to blank myocyte growth without compound added.)

O=C1NC(N(Cc2ccccc2)c2ccccc2)=N/C1=C\c1ccc2ncsc2c1 [Example 41, (Z)-5-(benzo[d]thiazol-6-ylmethylene)-2-(benzyl(phenyl)amino)-3,5-dihydro-4H-imidazol-4-one]
Avg 1 uM (average myocyte proliferation): * (<10% growth relative to blank myocyte growth without compound added.)
Avg 3 uM (average myocyte proliferation): * (<10% growth relative to blank myocyte growth without compound added.)
Avg 10 uM (average myocyte proliferation): ** (10%-50%)

CN(C1=N/C(=C\c2ccc3ncsc3c2)C(=O)N1)c1ccc([N+](=O)[O-])cc1 [Example 43, (Z)-5-(benzo[d]thiazol-6-ylmethylene)-2-(methyl(4-nitrophenyl)amino)-3,5-dihydro-4H-imidazol-4-one]
Avg 1 uM (average myocyte proliferation): ** (10%-50%)
Avg 3 uM (average myocyte proliferation): ** (10%-50%)
Avg 10 uM (average myocyte proliferation): ** (10%-50%)

CC(C)NC1=N/C(=C\c2ccc3scnc3c2)C(=O)N1 [Example 49, (Z)-5-(benzo[d]thiazol-5-ylmethylene)-2-(isopropylamino)-3,5-dihydro-4H-imidazol-4-one]
Avg 1 uM (average myocyte proliferation): * (<10% growth relative to blank myocyte growth without compound added.)
Avg 3 uM (average myocyte proliferation): ** (10%-50%)
Avg 10 uM (average myocyte proliferation): *** (>50%)

O=C1NC(NC23CC4CC(CC(C4)C2)C3)=N/C1=C\c1ccc2scnc2c1 [Example 50, (Z)-2-(adamantan-1-ylamino)-5-(benzo[d]thiazol-5-ylmethylene)-3,5-dihydro-4H-imidazol-4-one]
Avg 1 uM (average myocyte proliferation): * (<10% growth relative to blank myocyte growth without compound added.)
Avg 3 uM (average myocyte proliferation): * (<10% growth relative to blank myocyte growth without compound added.)

O=C1NC(Nc2ccccc2)=N/C1=C\c1ccc2[nH]ccc2c1 [Example 51, (Z)-5-((1H-indol-5-yl)methylene)-2-(phenylamino)-3,5-dihydro-4H-imidazol-4-one]
Avg 1 uM (average myocyte proliferation): ** (10%-50%)
Avg 3 uM (average myocyte proliferation): ** (10%-50%)
Avg 10 uM (average myocyte proliferation): ** (10%-50%)

O=C1NC(Nc2ccccc2)=N/C1=C\c1ccc2cn[nH]c2c1 [Example 54, (Z)-5-((1H-indazol-6-yl)methylene)-2-(phenylamino)-3,5-dihydro-4H-imidazol-4-one]
Avg 1 uM (average myocyte proliferation): * (<10% growth relative to blank myocyte growth without compound added.)
Avg 3 uM (average myocyte proliferation): * (<10% growth relative to blank myocyte growth without compound added.)

O=C1NC(Nc2ccccc2)=N/C1=C\c1ccc2[nH]ncc2c1 [Example 55, (Z)-5-((1H-indazol-5-yl)methylene)-2-(phenylamino)-3,5-dihydro-4H-imidazol-4-one]
Avg 1 uM (average myocyte proliferation): * (<10% growth relative to blank myocyte growth without compound added.)
Avg 3 uM (average myocyte proliferation): * (<10% growth relative to blank myocyte growth without compound added.)
